Measured values taken from ChEMBL document CHEMBL1201862, “PubChem BioAssay data set” (2004).
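Each compound was tested at five concentrations against cells in 96-well plates for 48 hours. Here, GI50 denotes the concentration required for 50% inhibition of growth.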 The source made the active and inactive calls. Rule as the data show it: active = GI50 up to about 1.1 µM and inactive = higher.

How the values were obtained:
Test in all cases: NCI tumour cell line growth inhibition, 48 h
KM-20L2 = system: KM-20L2
DLD-1 = system: DLD-1
TK-10 = system: TK-10
EKVX = system: EKVX
HCC 2998 = system: HCC 2998
ACHN = system: ACHN
786-0 = system: 786-0
M19-MEL = system: M19-MEL
SNB-78 = system: SNB-78
IGROV-1 = system: IGROV-1
M14 = system: M14
RPMI-8226 = system: RPMI-8226
SW-620 = system: SW-620
U-251 = system: U-251
HOP-62 = system: HOP-62
Malme-3M = system: Malme-3M
NCI-H522 = system: NCI-H522
A549 = system: A549
OVCAR-8 = system: OVCAR-8
DMS-114 = system: DMS-114
SK-OV-3 = system: SK-OV-3
SNB-19 = system: SNB-19
K562 = system: K562
NCI-H226 = system: NCI-H226
OVCAR-4 = system: OVCAR-4
COLO 205 = system: COLO 205
SR = system: SR
KM12 = system: KM12
UACC-257 = system: UACC-257
HOP-92 = system: HOP-92
UO-31 = system: UO-31
SNB-75 = system: SNB-75
HT-29 = system: HT-29
SF-268 = system: SF-268
SK-MEL-28 = system: SK-MEL-28
A498 = system: A498
NCI-H23 = system: NCI-H23
HOP-18 = system: HOP-18
OVCAR-3 = system: OVCAR-3
NCI-H460 = system: NCI-H460
SN12C = system: SN12C
RXF 393 = system: RXF 393
SF-539 = system: SF-539
DMS-273 = system: DMS-273
CAKI-1 = system: CAKI-1
SF-295 = system: SF-295
HCT-116 = system: HCT-116
CCRF-CEM = system: CCRF-CEM
LOX IMVI = system: LOX IMVI
UACC-62 = system: UACC-62
HL-60 = system: HL-60
LXFL 529 = system: LXFL 529
MOLT-4 = system: MOLT-4

Measured: GI50

COc1ccc(-c2cc(-c3cc(Cl)cc(Br)c3O)nc(O)n2)cc1
inactive: KM-20L2 19.1 µM | DLD-1 16.7 µM | TK-10 26.2 µM | EKVX 5.87 µM | HCC 2998 19.9 µM | ACHN 14.2 µM | 786-0 15.5 µM | M19-MEL 19.7 µM | SNB-78 18.7 µM | IGROV-1 20.4 µM | M14 19.2 µM | RPMI-8226 18.8 µM | SW-620 20.7 µM | U-251 17 µM | HOP-62 14.1 µM | Malme-3M 19.4 µM | NCI-H522 13.4 µM | A549 16.7 µM | OVCAR-8 16.7 µM | DMS-114 14.1 µM | SK-OV-3 19.5 µM | SNB-19 23.9 µM | K562 14.1 µM | NCI-H226 17.5 µM | OVCAR-4 5.66 µM | COLO 205 15.6 µM | SR 18 µM | KM12 18.9 µM | UACC-257 17.7 µM | HOP-92 17.8 µM | UO-31 17.3 µM | SNB-75 15.4 µM | HT-29 17.7 µM | SF-268 16.3 µM | SK-MEL-28 19.9 µM | A498 16.6 µM | NCI-H23 14 µM | HOP-18 17.2 µM | OVCAR-3 17.5 µM | NCI-H460 17.9 µM | SN12C 15.5 µM | RXF 393 14.5 µM | SF-539 14.7 µM | DMS-273 15 µM | CAKI-1 16.4 µM | SF-295 18 µM | HCT-116 12.2 µM | CCRF-CEM 19.8 µM | LOX IMVI 17.3 µM | UACC-62 14.9 µM | HL-60 23.2 µM | LXFL 529 14.6 µM | MOLT-4 13.2 µM
